Test results reported in ChEMBL document CHEMBL5715954, “Silencing c-Myc translation as a therapeutic strategy through targeting PI3Kδ and CK1ε in hematological malignancies” (Blood, 2017).
The source made the active and inactive calls. The rule behind the calls is not given here.

Assays:
SLL = experiment: Induction of apoptosis in human SLL cells assessed as increase in cleaved-PARP expression at 5 uM measured after 24 hrs in presence of bortezomib by Western blot analysis; format: functional, cell-based
mTORC1 (Homo sapiens) [1] = biological target: T1, mTORC1 (Homo sapiens) (UniProt P42345+Q8N122+Q9BVC4); experiment: Inhibition of mTORC1 in human LY7 cells assessed as reduction in c-Myc mRNA expression at 3 uM measured after 24 hrs in presence of bortezomib; format: cell-based
mTORC1 (Homo sapiens) [2] = biological target: T1, mTORC1 (Homo sapiens); experiment: Inhibition of mTORC1 in human CLL cells assessed as reduction in 4E-BP1 phosphorylation at 5 uM measured after 24 hrs in presence of bortezomib by Western blot analysis; format: cell-based; settings: CLL cell
mTORC1 (Homo sapiens) [3] = biological target: T1, mTORC1 (Homo sapiens); experiment: Inhibition of mTORC1 in human PF-382 cells assessed as reduction in 4E-BP1 phosphorylation at 5 uM measured after 24 hrs in presence of bortezomib by Western blot analysis; format: cell-based
[4] = biological target: T2, Phosphatidylinositol 4,5-bisphosphate 3-kinase catalytic subunit delta isoform (Homo sapiens) (UniProt O00329); experiment: Inhibition of PI3Kdelta in human HL-60 cells assessed as reduction in AKT phosphorylation at S473 residue measured after 4 hrs; format: cell-based; settings: dose 10-10000 nM
T2 sequence (whole entry): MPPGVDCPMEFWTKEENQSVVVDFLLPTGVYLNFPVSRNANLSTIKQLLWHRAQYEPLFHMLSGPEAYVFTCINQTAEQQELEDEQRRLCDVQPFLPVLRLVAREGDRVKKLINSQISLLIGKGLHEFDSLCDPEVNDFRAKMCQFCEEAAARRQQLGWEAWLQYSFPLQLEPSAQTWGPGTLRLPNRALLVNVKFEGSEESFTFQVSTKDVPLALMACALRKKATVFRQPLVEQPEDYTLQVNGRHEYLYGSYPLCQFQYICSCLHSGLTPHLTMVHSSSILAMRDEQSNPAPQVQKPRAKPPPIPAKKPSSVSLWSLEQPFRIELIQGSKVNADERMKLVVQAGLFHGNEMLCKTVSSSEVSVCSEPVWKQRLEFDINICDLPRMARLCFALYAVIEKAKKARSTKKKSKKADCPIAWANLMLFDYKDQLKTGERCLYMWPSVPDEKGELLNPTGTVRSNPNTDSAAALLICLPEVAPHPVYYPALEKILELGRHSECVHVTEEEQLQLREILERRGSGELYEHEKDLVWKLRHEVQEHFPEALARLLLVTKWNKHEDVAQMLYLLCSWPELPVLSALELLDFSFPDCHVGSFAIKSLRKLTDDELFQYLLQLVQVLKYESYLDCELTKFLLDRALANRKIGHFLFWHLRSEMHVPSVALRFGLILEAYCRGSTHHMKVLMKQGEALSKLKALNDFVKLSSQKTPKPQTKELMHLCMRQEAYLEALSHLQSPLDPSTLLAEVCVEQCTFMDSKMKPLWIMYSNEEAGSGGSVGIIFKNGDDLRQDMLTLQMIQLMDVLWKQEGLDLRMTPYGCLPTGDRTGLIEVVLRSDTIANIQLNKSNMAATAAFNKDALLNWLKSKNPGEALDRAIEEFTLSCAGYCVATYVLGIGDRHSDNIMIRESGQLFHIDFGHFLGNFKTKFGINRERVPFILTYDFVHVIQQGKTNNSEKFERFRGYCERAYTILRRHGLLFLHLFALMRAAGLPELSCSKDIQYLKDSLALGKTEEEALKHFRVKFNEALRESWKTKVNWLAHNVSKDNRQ

MOLT-4 = experiment: Antitumor activity against human MOLT-4 cells xenografted in NOD/SCID mouse assessed as reduction in tumor volume at 150 mg/kg, po administered daily for 25 days measured at 2 to 3 times per week during compound dosing by caliper method; format: functional, organism-based; settings: time 25.0 day
mTORC1 (Homo sapiens) [5] = biological target: T1, mTORC1 (Homo sapiens); experiment: Inhibition of mTORC1 in human NCI-H929 cells assessed as reduction in c-Myc expression at 5 uM measured after 24 hrs by Western blot analysis; format: cell-based
LY7 = experiment: Inhibition of PI3Kdelta/CK1epsilon in human LY7 cells assessed as reduction in c-Myc expression at 25 uM incubated for 24 hrs by Western blot analysis; format: cell-based
[6] = biological target: Myc proto-oncogene protein (Homo sapiens) (UniProt P01106); experiment: Inhibition of c-Myc in human LY10 cells assessed as reduction in eIF4B expression at 3 uM incubated for 24 hrs in presence of carfilzomib by Western blot analysis; format: cell-based
[7] = biological target: T2, Phosphatidylinositol 4,5-bisphosphate 3-kinase catalytic subunit delta isoform (Homo sapiens); experiment: Inhibition of PI3Kdelta in human HL-60 cells assessed as reduction in AKT phosphorylation at S473 residue at 1 uM measured after 4 hrs relative to control; format: cell-based
[8] = biological target: T2, Phosphatidylinositol 4,5-bisphosphate 3-kinase catalytic subunit delta isoform (Homo sapiens); experiment: Inhibition of PI3Kdelta in human THP-1 cells assessed as reduction in AKT phosphorylation at S473 residue measured after 4 hrs; format: cell-based; settings: dose 10-10000 nM
mTORC1 (Homo sapiens) [9] = biological target: T1, mTORC1 (Homo sapiens); experiment: Inhibition of mTORC1 in human PF-382 cells assessed as reduction in c-Myc expression at 5 uM measured after 24 hrs in presence of carfilzomib by Western blot analysis; format: cell-based
[10] = biological target: T2, Phosphatidylinositol 4,5-bisphosphate 3-kinase catalytic subunit delta isoform (Homo sapiens); experiment: Inhibition of PI3Kdelta in human THP-1 cells assessed as reduction in AKT phosphorylation at S473 residue at 1 uM measured after 4 hrs relative to control; format: cell-based
mTORC1 (Homo sapiens) [11] = biological target: T1, mTORC1 (Homo sapiens); experiment: Inhibition of mTORC1 in human NCI-H929 cells assessed as reduction in 4E-BP1 phosphorylation at 5 uM measured after 24 hrs in presence of carfilzomib by Western blot analysis; format: cell-based
mTORC1 (Homo sapiens) [12] = biological target: T1, mTORC1 (Homo sapiens); experiment: Inhibition of mTORC1 in human SLL cells assessed as reduction in 4E-BP1 phosphorylation at 5 uM measured after 24 hrs in presence of carfilzomib by Western blot analysis; format: cell-based
mTORC1 (Homo sapiens) [13] = biological target: T1, mTORC1 (Homo sapiens); experiment: Inhibition of mTORC1 in human LY7 cells assessed as reduction in c-Myc expression at 3 uM measured after 24 hrs in presence of carfilzomib by Western blot analysis; format: cell-based
[14] = biological target: T2, Phosphatidylinositol 4,5-bisphosphate 3-kinase catalytic subunit delta isoform (Homo sapiens); experiment: Inhibition of PI3Kdelta in human DB cells assessed as reduction in AKT phosphorylation at S473 residue measured after 4 hrs; format: cell-based; settings: dose 10-10000 nM
mTORC1 (Homo sapiens) [15] = biological target: T1, mTORC1 (Homo sapiens); experiment: Inhibition of mTORC1 in human PF-382 cells assessed as reduction in 4E-BP1 phosphorylation at 5 uM measured after 24 hrs in presence of carfilzomib by Western blot analysis; format: cell-based
[16] = biological target: Casein kinase I isoform epsilon (Homo sapiens, UniProt P49674); experiment: Inhibition of CK1epsilon in human LY7 cells assessed as reduction in CK1epsilon autophosphorylation at 10 to 25 uM preincubated for 1 hr followed by addition of PP2A inhibitor calyculin A and measured after 15 to 60 mins by Western blot analysis; format: cell-based; settings: dose 10-25 µM, time lower 75.0 min, time upper […]
OCI-Ly7 = experiment: Cytotoxicity against human OCILY7 cells transfected with c-Myc-expressing plasmid (M+) assessed as reduction in cell viability at 3 to 5 uM incubated for 24 hrs in presence of carfilzomib by cell-titer glo assay; format: functional, cell-based; settings: dose 3-5 µM
OCILY7 = experiment: Inhibition of PI3Kdelta/CK1epsilon in human OCILY7 cells transfected with an empty vector assessed as reduction in c-Myc expression at 7.5 to 25 uM measured after 24 hrs by Western blot analysis; format: cell-based; settings: dose 7.5-25 µM

T1 sequence (Q8N122 whole entry, looked up, other chains not shown): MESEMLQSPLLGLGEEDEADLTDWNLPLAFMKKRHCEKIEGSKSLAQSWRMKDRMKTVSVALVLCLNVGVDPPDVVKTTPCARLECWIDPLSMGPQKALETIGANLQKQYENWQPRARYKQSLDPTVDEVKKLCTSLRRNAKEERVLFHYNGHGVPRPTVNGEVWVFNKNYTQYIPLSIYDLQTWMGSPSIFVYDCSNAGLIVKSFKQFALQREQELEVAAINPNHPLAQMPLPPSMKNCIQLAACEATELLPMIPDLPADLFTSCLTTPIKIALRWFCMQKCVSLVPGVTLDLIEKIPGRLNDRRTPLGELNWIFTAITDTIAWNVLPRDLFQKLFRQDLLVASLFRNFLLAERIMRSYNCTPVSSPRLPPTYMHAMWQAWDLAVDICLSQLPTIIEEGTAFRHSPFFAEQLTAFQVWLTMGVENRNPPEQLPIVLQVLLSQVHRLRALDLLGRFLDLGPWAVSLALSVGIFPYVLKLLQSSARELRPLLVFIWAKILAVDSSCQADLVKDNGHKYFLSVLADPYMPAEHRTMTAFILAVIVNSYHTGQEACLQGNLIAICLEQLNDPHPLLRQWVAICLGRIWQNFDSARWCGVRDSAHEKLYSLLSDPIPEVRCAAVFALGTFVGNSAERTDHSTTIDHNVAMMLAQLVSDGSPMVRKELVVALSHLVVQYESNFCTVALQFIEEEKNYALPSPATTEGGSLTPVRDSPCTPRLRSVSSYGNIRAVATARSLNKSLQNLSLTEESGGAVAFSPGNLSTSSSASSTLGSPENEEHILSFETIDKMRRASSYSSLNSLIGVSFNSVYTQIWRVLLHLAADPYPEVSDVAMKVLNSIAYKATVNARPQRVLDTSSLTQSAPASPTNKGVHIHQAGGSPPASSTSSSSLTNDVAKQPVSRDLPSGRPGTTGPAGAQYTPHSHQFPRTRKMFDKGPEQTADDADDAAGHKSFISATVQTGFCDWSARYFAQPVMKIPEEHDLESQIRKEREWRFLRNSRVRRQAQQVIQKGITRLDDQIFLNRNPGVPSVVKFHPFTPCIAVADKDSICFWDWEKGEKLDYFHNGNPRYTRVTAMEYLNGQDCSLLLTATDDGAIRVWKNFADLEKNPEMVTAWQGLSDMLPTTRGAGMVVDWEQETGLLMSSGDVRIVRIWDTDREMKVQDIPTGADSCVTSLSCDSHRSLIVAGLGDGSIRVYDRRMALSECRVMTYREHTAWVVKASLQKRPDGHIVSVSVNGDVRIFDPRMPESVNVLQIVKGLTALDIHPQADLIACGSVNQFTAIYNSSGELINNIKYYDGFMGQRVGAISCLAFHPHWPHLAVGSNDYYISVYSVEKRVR
T1 sequence (Q9BVC4 whole entry, looked up, other chains not shown): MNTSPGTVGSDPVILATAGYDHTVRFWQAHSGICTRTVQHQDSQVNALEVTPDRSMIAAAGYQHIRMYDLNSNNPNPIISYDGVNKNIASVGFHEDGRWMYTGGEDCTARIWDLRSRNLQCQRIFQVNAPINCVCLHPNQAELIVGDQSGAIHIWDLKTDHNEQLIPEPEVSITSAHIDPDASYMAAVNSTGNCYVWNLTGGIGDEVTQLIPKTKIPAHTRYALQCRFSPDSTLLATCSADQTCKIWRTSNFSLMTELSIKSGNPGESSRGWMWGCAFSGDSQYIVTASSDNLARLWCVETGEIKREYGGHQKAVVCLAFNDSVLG
Casein kinase I isoform epsilon, sequence (P49674 whole entry, looked up, canonical isoform): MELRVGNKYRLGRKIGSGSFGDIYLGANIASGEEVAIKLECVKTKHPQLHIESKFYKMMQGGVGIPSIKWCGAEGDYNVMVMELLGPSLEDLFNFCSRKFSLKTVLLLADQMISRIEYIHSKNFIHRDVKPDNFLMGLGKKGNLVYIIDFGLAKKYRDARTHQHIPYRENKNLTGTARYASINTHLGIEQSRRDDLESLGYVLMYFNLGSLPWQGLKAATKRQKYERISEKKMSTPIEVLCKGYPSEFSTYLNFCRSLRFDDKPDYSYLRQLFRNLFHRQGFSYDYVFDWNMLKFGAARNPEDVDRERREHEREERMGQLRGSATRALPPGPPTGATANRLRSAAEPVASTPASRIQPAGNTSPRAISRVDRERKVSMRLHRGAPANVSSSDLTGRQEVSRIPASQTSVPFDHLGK
Myc proto-oncogene protein (Homo sapiens), sequence (P01106 whole entry, canonical isoform): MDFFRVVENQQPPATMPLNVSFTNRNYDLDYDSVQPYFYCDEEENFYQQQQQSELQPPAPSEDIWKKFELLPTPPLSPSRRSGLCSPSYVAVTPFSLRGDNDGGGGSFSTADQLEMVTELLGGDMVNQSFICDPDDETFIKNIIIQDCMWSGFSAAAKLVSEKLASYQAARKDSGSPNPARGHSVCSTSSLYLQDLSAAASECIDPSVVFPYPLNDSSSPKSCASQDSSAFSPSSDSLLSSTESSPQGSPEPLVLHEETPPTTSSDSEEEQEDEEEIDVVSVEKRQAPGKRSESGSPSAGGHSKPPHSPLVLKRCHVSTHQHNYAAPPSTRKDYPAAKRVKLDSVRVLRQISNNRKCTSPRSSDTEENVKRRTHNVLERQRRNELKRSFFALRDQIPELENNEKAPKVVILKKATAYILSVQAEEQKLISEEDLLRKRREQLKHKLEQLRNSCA

`CC[C@H](Nc1ncnc2[nH]cnc12)c1nc2cccc(F)c2c(=O)n1-c1ccccc1` was tested, and the Activity (SLL) was “Active”, the inhibition (mTORC1 (Homo sapiens) [1]) was “inactive” and the inhibition (mTORC1 (Homo sapiens) [2]) was “inactive”. For the same compound, the inhibition (mTORC1 (Homo sapiens) [3]) was “inactive”.

With `CC(C)Oc1ccc(-c2nn([C@@H](C)c3oc4ccc(F)cc4c(=O)c3-c3cccc(F)c3)c3ncnc(N)c23)cc1F` [UMBRALISIB] the inhibition [4] was “Dose-Dependent Effect”, the Activity (MOLT-4) was “Active” and the inhibition (mTORC1 (Homo sapiens) [5]) was “inactive”. For the same compound, the inhibition (LY7) was “Active”, the inhibition [6] was “Active” and the inhibition [7] was 43%. The inhibition [8] was “Dose-Dependent Effect”, the inhibition (mTORC1 (Homo sapiens) [9]) was “Active” and the inhibition [10] was 43%. For the same compound, the inhibition (mTORC1 (Homo sapiens) [11]) was “Active”, the inhibition (mTORC1 (Homo sapiens) [12]) was “Active” and the inhibition (mTORC1 (Homo sapiens) [13]) was “Active”. The inhibition [14] was “Dose-Dependent Effect”, the inhibition (mTORC1 (Homo sapiens) [15]) was “Active” and the inhibition [16] was “Active”. The Activity (OCI-Ly7) was “inactive” and the inhibition (OCILY7) was “Active”.
